From patent US9617244B2, “Antibacterial quinoline derivatives” (JANSSEN PHARMACEUTICA NV, priority 2012, dated 2017)
Converted amounts (≈) assume the structure as drawn.

Legend:
[1] = system: Staphylococcus aureus (ATCC29213); experiment: In-vitro anti-bacterial activity, microtitre plate assay, IC90 determination (non-mycobacterial strains); assay type: cell-based; conditions: 90% inhibitory concentration for bacterial growth, resazurin fluorescence; for IC90 STA B29213: 24 hours; for IC90: Staphylococcus aureus, ATCC29213, 24 h, read-out: IC90 STA B29213
Experimental: D.2. In-Vitro Method for Testing Compounds for Anti-Bacterial Activity Against Various Non-Mycobacterial Strains
Preparation of Bacterial Suspensions for Susceptibility Testing:
The bacteria used in this study were grown overnight in flasks containing 100 ml Mueller-Hinton Broth (Becton Dickinson—cat. no. 275730) in sterile de-ionized water, with shaking, at 37° C. Stocks (0.5 ml/tube) were stored at −70° C. until use. Bacteria titrations were performed in microtiter plates to detect the TCID50, in which TCID50 represents the dilution that gives rise to bacterial growth in 50% of inoculated cultures. In general, an inoculum level of approximately 100 TCID50 was used for susceptibility testing.
Anti Bacterial Susceptibility Testing: IC90 Determination
Flat-bottom, sterile 96-well plastic microtiter plates were filled with 180 μl of sterile deionized water, supplemented with 0.25% BSA. Subsequently, stock solutions (7.8× final test concentration) of compounds were added in 45 μl volumes in column 2 Serial five-fold dilutions (45 μl in 180 μl) were made directly in the microtiter plates from column 2 to reach column 11. Untreated control samples with (column 1) and without (column 12) inoculum were included in each microtiter plate. Depending on the bacteria type, approximately 10 to 60 CFU per well of bacteria inoculum (100 TCID50), in a volume of 100 μl in 2.8× Mueller-Hinton broth medium, was added to the rows A to H, except column 12. The same volume of broth medium without inoculum was added to column 12 in row A to H. The cultures were incubated at 37° C. for 24 hours under a normal atmosphere (incubator with open air valve and continuous ventilation). At the end of incubation, one day after inoculation, the bacterial growth was quantitated fluorometrically. Therefore resazurin (0.6 mg/ml) was added in a volume of 20 μl to all wells 3 hours after inoculation, and the plates were re-incubated overnight. A change in colour from blue to pink indicated the growth of bacteria. The fluorescence was read in a computer-controlled fluorometer (Cytofluor Biosearch) at an excitation wavelength of 530 nm and an emission wavelength of 590 nm. The % growth inhibition achieved by the compounds was calculated according to standard methods. The IC90 (expressed in μg/ml) was defined as the 90% inhibitory concentration for bacterial growth.

[2] = system: Mycobacterium smegmatis (ATCC607); experiment: In-vitro anti-bacterial activity against strain M. Smegmatis ATCC607; assay type: cell-based; conditions: 90% inhibitory concentration for bacterial growth, Alamar Blue fluorescence; for IC90 MSM 607: 48 hours; for IC90: Mycolicibacterium smegmatis, ATCC607, 48 h, read-out: IC90 MSM 607
Experimental: D.1. In-Vitro Method for Testing Compounds for Anti-Bacterial Activity Against Strain M. Smegmatis ATCC607
Flat-bottom, sterile 96-well plastic microtiter plates were filled with 180 μl of sterile deionized water, supplemented with 0.25% BSA. Subsequently, stock solutions (7.8× final test concentration) of compounds were added in 45 μl volumes to a series of duplicate wells in column 2 so as to allow evaluation of their effects on bacterial growth. Serial five-fold dilutions (45 μl in 180 μl) were made directly in the microtiter plates from column 2 to 11 using a customised robot system (Zymark Corp., Hopkinton, Mass.). Pipette tips were changed after every 3 dilutions to minimize pipetting errors with high hydrophobic compounds. Untreated control samples with (column 1) and without (column 12) inoculum were included in each microtiter plate. Approximately 250 CFU per well of bacteria inoculum, in a volume of 100 μl in 2.8× Mueller-Hinton broth medium, was added to the rows A to H, except column 12. The same volume of broth medium without inoculum was added to column 12 in row A to H. The cultures were incubated at 37° C. for 48 hours in a humidified 5% CO2 atmosphere (incubator with open air valve and continuous ventilation). At the end of incubation, two days after inoculation, the bacterial growth was quantitated fluorometrically. Therefore Alamar Blue (10×) was added to all wells in a volume of 20 μl and plates were incubated for another 2 hours at […]
The fluorescence was read in a computer-controlled fluorometer (Cytofluor, Biosearch) at an excitation wavelength of 530 nm and an emission wavelength of 590 nm (gain 30). The percentage growth inhibition achieved by the compounds was calculated according to standard methods and expressed as IC90 (μg/ml) which defines the 90% inhibitory concentration for bacterial growth.

Compound	IC90 STA B29213 [1] [µg/mL]	IC90 MSM 607 [2] [µg/mL]	IC90 [2] [µg/mL]	IC90 [1] [µg/mL]
COc1nc2ccc(SC)cc2cc1C(c1cccc(Cl)c1)C1(O)CCNC(c2ccc(F)cc2C)C1 (stereo not shown) [Compound 163]	1.70 (≈ 3.17 µM)	1.20 (≈ 2.23 µM)	–	–
COc1nc2ccc(SC)cc2cc1C(c1cccc(Cl)c1)C1(O)CCNC(c2ccc(F)cc2C)C1 (stereo not shown) [Compound 164]	4.23 (≈ 7.88 µM)	2.38 (≈ 4.43 µM)	–	–
COc1nc2ccc(SC)cc2cc1C(c1cccc(Cl)c1)C1(O)CCNC(c2ccc(F)cc2C)C1 (stereo not shown) [Compound 165]	5.10 (≈ 9.5 µM)	3.61 (≈ 6.72 µM)	–	–
COc1nc2ccc(SC)cc2cc1C(c1cccc(Cl)c1)C1(O)CCNC(c2ccc(F)cc2C)C1 (stereo not shown) [Compound 166]	3.09 (≈ 5.75 µM)	1.95 (≈ 3.63 µM)	–	–
COc1nc2ccc(SC)cc2cc1C(c1ccccc1)C1(O)CCNC(c2ccc(F)cc2C)C1 (stereo not shown) [Compound 167]	3.17 (≈ 6.31 µM)	1.26 (≈ 2.51 µM)	–	–
COc1nc2ccc(SC)cc2cc1C(c1ccccc1)C1(O)CCNC(c2ccc(F)cc2C)C1 (stereo not shown) [Compound 169]	4.96 (≈ 9.87 µM)	3.94 (≈ 7.84 µM)	–	–
COc1nc2ccc(SC)cc2cc1C(c1ccccc1)C1(O)CCNC(c2ccc(F)cc2C)C1 (stereo not shown) [Compound 170]	5.27 (≈ 10.5 µM)	4.69 (≈ 9.33 µM)	–	–
COc1nc2ccc(Br)cc2cc1C(c1cccc(Cl)c1)C1(O)CCNC(c2ccc(F)cc2C)C1 (stereo not shown) [Compound 173]	2.86 (≈ 5.02 µM)	–	3.2 (≈ 5.62 µM)	–
CSc1ccc2[nH]c(=O)c(C(c3cccc(Cl)c3)C3(O)CCNC(c4ccc(F)cc4C)C3)cc2c1 (stereo not shown) [Compound 177]	1.76 (≈ 3.36 µM)	2.78 (≈ 5.31 µM)	–	–
CSc1ccc2[nH]c(=O)c(C(c3ccccc3)C3(O)CCNC(c4ccc(F)cc4C)C3)cc2c1 (stereo not shown) [Compound 179]	8.69 (≈ 17.8 µM)	6.15 (≈ 12.6 µM)	–	–
CSc1ccc2nc(O)c(C(c3ccccc3)C3(O)CCNC(c4ccc(F)cc4C)C3)cc2c1 (stereo not shown) [Compound 182]	–	–	6.6 (≈ 13.5 µM)	6.6 (≈ 13.5 µM)
CSc1ccc2nc(O)c(C(c3ccccc3)C3(O)CCNC(c4ccc(F)cc4C)C3)cc2c1 (stereo not shown) [Compound 183]	3.31 (≈ 6.77 µM)	3.31 (≈ 6.77 µM)	–	–
Cc1cc(F)ccc1C1CC(O)(C(c2ccccc2)c2cc3cc(Br)ccc3[nH]c2=O)CCN1 (stereo not shown) [Compound 192]	7.00 (≈ 13.4 µM)	13.96 (≈ 26.8 µM)	–	–
COc1nc2ccc(SC)cc2cc1C(c1ccccc1)C1(O)CCNC(c2ccc(F)cc2C)C1 (stereo not shown) [Compound 196]	3.17 (≈ 6.31 µM)	2.52 (≈ 5.01 µM)	–	–
O=c1[nH]c2ccc(Br)cc2cc1C(c1ccc(Cl)cc1)C1(O)CCNCC1Cc1cccc(F)c1 (stereo not shown) [Compound 229]	1.86 (≈ 3.35 µM)	3.31 (≈ 5.95 µM)	–	–
CSc1ccc2[nH]c(=O)c(C(c3ccc(Cl)cc3)C3(O)CCNC(c4ccccc4)C3)cc2c1 (stereo not shown) [Compound 230]	1.67 (≈ 3.4 µM)	1.18 (≈ 2.4 µM)	–	–
CSc1ccc2[nH]c(=O)c(C(c3ccc(Cl)cc3)C3(O)CCNC(c4ccccc4)C3)cc2c1 (stereo not shown) [Compound 231]	3.30 (≈ 6.72 µM)	2.62 (≈ 5.34 µM)	–	–
CSc1ccc2[nH]c(=O)c(C(c3ccc(Cl)cc3)C3(O)CCNC(c4ccccc4)C3)cc2c1 (stereo not shown) [Compound 232]	6.65 (≈ 13.5 µM)	5.93 (≈ 12.1 µM)	–	–
CSc1ccc2[nH]c(=O)c(C(c3ccc(Cl)cc3)C3(O)CCNC(c4ccccc4)C3)cc2c1 (stereo not shown) [Compound 233]	1.67 (≈ 3.4 µM)	1.32 (≈ 2.69 µM)	–	–
CSc1ccc2[nH]c(=O)c(C(c3ccc(Cl)cc3)C3(O)CCNC(c4ccccc4)C3)cc2c1 (stereo not shown) [Compound 234]	5.24 (≈ 10.7 µM)	3.71 (≈ 7.56 µM)	–	–
CSc1ccc2[nH]c(=O)c(C(c3ccc(Cl)cc3)C3(O)CCNC(c4ccccc4)C3)cc2c1 (stereo not shown) [Compound 235]	4.17 (≈ 8.49 µM)	6.60 (≈ 13.4 µM)	–	–
Cc1cc(F)ccc1C1CC(O)(C(c2ccccc2)c2cc3cc(-c4cccnc4)ccc3[nH]c2=O)CCN1 (stereo not shown) [Compound 236]	–	–	7.26 (≈ 14 µM)	10.3 (≈ 19.7 µM)

Now from value to compound:

IC90 STA B29213 [1] [µg/mL]	IC90 MSM 607 [2] [µg/mL]	IC90 [2] [µg/mL]	IC90 [1] [µg/mL]	Compound
2.20 (≈ 3.96 µM)	–	2.77 (≈ 4.99 µM)	–	COc1nc2ccc(SC)cc2cc1C(c1ccc(Cl)cc1)C1(O)CCNC(Cc2ccc(F)c(F)c2)C1 (stereo not shown) [Compound 188]
1.39 (≈ 2.5 µM)	1.76 (≈ 3.17 µM)	–	–	COc1nc2ccc(SC)cc2cc1C(c1ccc(Cl)cc1)C1(O)CCNC(Cc2ccc(F)c(F)c2)C1 (stereo not shown) [Compound 190]
>19.28	>19.28	–	–	COc1nc2ccc(S(C)(=O)=O)cc2cc1C(c1ccc(Cl)cc1)C1(O)CCNC(c2ccc(F)cc2C)C1 (stereo not shown) [Compound 201]
3.63 (≈ 6.71 µM)	7.23 (≈ 13.4 µM)	–	–	CSc1ccc2[nH]c(=O)c(C(c3ccc(Cl)cc3)C3(O)CCNC(Cc4ccc(F)c(F)c4)C3)cc2c1 (stereo not shown) [Compound 204]
14.75 (≈ 25.1 µM)	14.75 (≈ 25.1 µM)	–	–	COc1nc2ccc(S(C)(=O)=O)cc2cc1C(c1ccc(Cl)cc1)C1(O)CCNC(Cc2ccc(F)c(F)c2)C1 (stereo not shown) [Compound 209]
1.86 (≈ 3.17 µM)	2.94 (≈ 5.01 µM)	–	–	COc1nc2ccc(S(C)(=O)=O)cc2cc1C(c1ccc(Cl)cc1)C1(O)CCNC(Cc2ccc(F)c(F)c2)C1 (stereo not shown) [Compound 210]
7.60 (≈ 13.3 µM)	6.04 (≈ 10.5 µM)	–	–	CS(=O)(=O)c1ccc2[nH]c(=O)c(C(c3ccc(Cl)cc3)C3(O)CCNC(Cc4ccc(F)c(F)c4)C3)cc2c1 (stereo not shown) [Compound 212]
>17.31	>17.31	–	–	CS(=O)(=O)c1ccc2[nH]c(=O)c(C(c3ccc(Cl)cc3)C3(O)CCNC(Cc4ccc(F)c(F)c4)C3)cc2c1 (stereo not shown) [Compound 213]
>17.57	>17.57	–	–	CS(=O)(=O)c1ccc2[nH]c(=O)c(C(c3ccc(Cl)cc3)C3(O)CCNC(Cc4ccc(F)c(F)c4)C3)cc2c1 (stereo not shown) [Compound 214]
13.66 (≈ 23.8 µM)	17.19 (≈ 30 µM)	–	–	CS(=O)(=O)c1ccc2[nH]c(=O)c(C(c3ccc(Cl)cc3)C3(O)CCNC(Cc4ccc(F)c(F)c4)C3)cc2c1 (stereo not shown) [Compound 215]
>14.80	>14.80	–	–	Cc1cc(F)ccc1C1CC(O)(C(c2ccc(Cl)cc2)c2cc3cc(S(C)(=O)=O)ccc3[nH]c2=O)CCN1 (stereo not shown) [Compound 220]
3.73 (≈ 6.72 µM)	2.96 (≈ 5.33 µM)	–	–	Cc1cc(F)ccc1C1CC(O)(C(c2ccc(Cl)cc2)c2cc3cc(S(C)(=O)=O)ccc3[nH]c2=O)CCN1 (stereo not shown) [Compound 221]
>14.78	>14.78	–	–	Cc1cc(F)ccc1C1CC(O)(C(c2ccc(Cl)cc2)c2cc3cc(S(C)(=O)=O)ccc3[nH]c2=O)CCN1 (stereo not shown) [Compound 222]
>14.83	>14.83	–	–	Cc1cc(F)ccc1C1CC(O)(C(c2ccc(Cl)cc2)c2cc3cc(S(C)(=O)=O)ccc3[nH]c2=O)CCN1 (stereo not shown) [Compound 223]
3.73 (≈ 6.72 µM)	5.92 (≈ 10.7 µM)	–	–	Cc1cc(F)ccc1C1CC(O)(C(c2ccc(Cl)cc2)c2cc3cc(S(C)(=O)=O)ccc3[nH]c2=O)CCN1 (stereo not shown) [Compound 224]
>14.77	>14.77	–	–	Cc1cc(F)ccc1C1CC(O)(C(c2ccc(Cl)cc2)c2cc3cc(S(C)(=O)=O)ccc3[nH]c2=O)CCN1 (stereo not shown) [Compound 225]
